Patent US20100168087A1, “BENZO[1,2,3]THIADIAZINE DERIVATES” (priority 2006, published 2010)

Key:
male Sprague-Dawley rats = experiment: elevated maze test in the rat; format: in vivo; details: per os, 60-min pretreatment, 5-min measurement, time spent in the open arms and number of entries into the open arms
Procedure: Pharmacological activity of the compounds of the general Formula (I) has been evaluated in elevated maze test in the rat.
The tests were carried out according to the method of S. Pellow and coworkers (J. Neurosci. Methods. 1985, 14, 149-167). During the test, a wooden-floor cross elevated by 50 cm from the floor was used. The length and the width of the arms of the cross were 100 and 15 cm, respectively. Two opposite arms of the cross are fitted at the ends and both sides with black plexyglass wall of 40 cm height (closed arms).
The central section of the cross measuring 15 by 15 cm is open. The other two opposite arms of the cross are not provided with walls (open arms).
The tests were carried out in male Sprague-Dawley rats weighing 200 to 220 g. After the 60-min pretreatment time (per os treatment), the animal was placed in the center of the maze. During the 5-min measurement time, four variables were recorded: the time spent in the open arms; the time spent in the closed arms; the number of entries into the open arms; the number of entries into the closed arms.
Animals normally avoid the open and light parts of the maze, thereby spending little time therein only. The anxiolytic effect of the compounds of the general Formula (I) is indicated by the increase in the time spent (in seconds) in the open arms and/or by the increase in the number of the entries into the open compartments of the maze. The minimum effective dose (MED) was determined for each tested compounds regarding the time spent in the open arms and the number of entries into the open arms. During the test, the known anxiolytic compound 1-methyl-5-phenyl-7-chloro-1,3-dihydro-2H-1,4-benzodiazepin-2-one (INN: diazepam) of the Formula (IV)
was used. Treatment of the animals was carried out orally with the doses 0.1, 0.3, 1.0, 3.0 for diazepam and 0.01, 0.1, 1.0 mg/kg for the compounds of the general Formula (I).

Structure (SMILES): COc1ccc2c(c1)C=NNS2(=O)=O [Example 12, 6-Methoxybenzo[1,2,3]thiadiazine-1,1-dioxide]
- melting point: 163 to 164 °C

Structure (SMILES): COc1cccc2c1S(=O)(=O)NN=C2C [Example 8, 4-Methyl-8-methoxybenzo[1,2,3]thiadiazine-1,1-dioxide]
- melting point: 194 to 197 °C

Structure (SMILES): COc1ccc2c(c1Cl)S(=O)(=O)NN=C2C [Example 7, 8-chloro-4-methyl-7-methoxybenzo[1,2,3]thiadiazine-1,1-dioxide]
- melting point: 227 to 229 °C

Structure (SMILES): CC1=NNS(=O)(=O)c2c1ccc(Cl)c2Cl [Example 3, 7,8-Dichloro-4-methylbenzo[1,2,3]tiadiazine-1,1-dioxide]
- MED (minimum effective dose), anxiolytic effect in elevated maze test (male Sprague-Dawley rats): ≦0.01 mg/kg p.o.

Structure (SMILES): CC1=NNS(=O)(=O)c2c1cc(C)c(Cl)c2Cl [Example 10, 7,8-Dichloro-4,6-dimethylbenzo[1,2,3]thiadiazine-1,1-dioxide]
- melting point: 224 to 226 °C

Structure (SMILES): CN1N=Cc2ccccc2S1(=O)=O [Example 23, 2-Methylbenzo[1,2,3]thiadiazine-1,1-dioxide]
- melting point: 79 to 80 °C

Structure (SMILES): CCC1=NNS(=O)(=O)c2c1ccc(Cl)c2Cl [Example 4, 7,8-Dichloro-4-ethylbenzo[1,2,3]thiadiazine-1,1-dioxide]
- melting point: 238 to 239 °C

Structure (SMILES): O=S1(=O)NN=Cc2ccc(Cl)cc21 [Example 15, 7-chlorobenzo[1,2,3]thiadiazine-1,1-dioxide]
- melting point: 221 to 223 °C

Structure (SMILES): CC1=NNS(=O)(=O)c2cc(Cl)ccc21 [Example 1, 7-chloro-4-methylbenzo[1,2,3]thiadiazine-1,1-dioxide]
- melting point: 187 to 189 °C

Structure (SMILES): COc1ccc2c(c1Cl)S(=O)(=O)N(C)N=C2C [Example 25, 8-chloro-7-methoxy-2,4-dimethylbenzo[1,2,3]thiadiazine-1,1-dioxide]
- melting point: 151 to 152 °C

Structure (SMILES): CC1=NN(C)S(=O)(=O)c2c(Cl)c(Cl)cc(C)c21 [Example 24, 7,8-Dichloro-2,4,5-trimethylbenzo[1,2,3]thiadiazine-1,1-dioxide]
- melting point: 166 to 168 °C

Structure (SMILES): CC1=NNS(=O)(=O)c2c(Cl)cccc21 [Example 6, 8-chloro-4-methylbenzo[1,2,3]thiadiazine-1,1-dioxide]
- melting point: 206 to 207 °C

Structure (SMILES): CN1N=Cc2ccc(Cl)cc2S1(=O)=O [Example 21, 7-chloro-2-methylbenzo[1,2,3]thiadiazine-1,1-dioxide]
- melting point: 131 to 133 °C

Structure (SMILES): COc1ccc2c(c1)S(=O)(=O)NN=C2C [Example 14, 4-Methyl-7-methoxybenzo[1,2,3]thiadiazine-1,1-dioxide]
- melting point: 174 to 176 °C

Structure (SMILES): CC1=NNS(=O)(=O)c2ccccc21 [Example 13, 4-Methylbenzo[1,2,3]thiadiazine-1,1-dioxide]
- melting point: 183 to 185 °C

Structure (SMILES): CCC1=NN(C)S(=O)(=O)c2c1ccc(Cl)c2Cl [Example 18, 7,8-Dichloro-4-ethyl-2-methylbenzo[1,2,3]thiadiazine-1,1-dioxide]
- melting point: 119 to 120 °C

Structure (SMILES): CN1C(=O)CN=C(c2ccccc2)c2cc(Cl)ccc21 [Diazepam, 1-methyl-5-phenyl-7-chloro-1,3-dihydro-2H-1,4-benzodiazepin-2-one, reference compound]
- MED (minimum effective dose), anxiolytic effect in elevated maze test (male Sprague-Dawley rats): 1.00 mg/kg p.o.

Structure (SMILES): CN1N=Cc2ccc(Cl)c(Cl)c2S1(=O)=O [Example 20, 7,8-Dichloro-2-methylbenzo[1,2,3]thiadiazine-1,1-dioxide]
- MED (minimum effective dose), anxiolytic effect in elevated maze test (male Sprague-Dawley rats): ≦0.01 mg/kg p.o.
- melting point: 120 to 121 °C

Structure (SMILES): COc1ccc2c(c1OC)S(=O)(=O)NN=C2C [Example 9, 7,8-Dimethoxy-4-methylbenzo[1,2,3]thiadiazine-1,1-dioxide]
- melting point: 238 to 240 °C

Structure (SMILES): COc1ccc2c(c1Cl)S(=O)(=O)N(C)N=C2 [Example 28, 8-chloro-2-methyl-7-methoxybenzo[1,2,3]thiadiazine-1,1-dioxide]
- melting point: 173 to 175 °C

Structure (SMILES): CCC1=NNS(=O)(=O)c2cc(Cl)ccc21 [Example 2, 4-Ethyl-7-chlorobenzo[1,2,3]thiadiazine-1,1-dioxide]
- melting point: 196 to 198 °C

Structure (SMILES): O=S1(=O)NN=Cc2ccc(Cl)c(Cl)c21 [Example 11, 7,8-Dichlorobenzo[1,2,3]thiadiazine-1,1-dioxide]
- melting point: 183 to 185 °C

Structure (SMILES): CC1=NN(C)S(=O)(=O)c2c1cc(C)c(Cl)c2Cl [Example 26, 7,8-Dichloro-2,4,6-trimethylbenzo[1,2,3]thiadiazine-1,1-dioxide]
- melting point: 179 to 180 °C

Structure (SMILES): COc1ccc2c(c1)C=NN(C)S2(=O)=O [Example 22, 2-Methyl-6-methoxybenzo[1,2,3]thiadiazine-1,1-dioxide]
- melting point: 99 to 101 °C

Structure (SMILES): CCC1=NN(CC)S(=O)(=O)c2c1ccc(Cl)c2Cl [Example 19, 2,4-Diethyl-7,8-dichlorobenzo[1,2,3]thiadiazine-1,1-dioxide]
- melting point: 79 to 82 °C

Structure (SMILES): CC1=NNS(=O)(=O)c2c(Cl)c(Cl)cc(C)c21 [Example 5, 7,8-Dichloro-4,5-dimethylbenzo[1,2,3]thiadiazine-1,1-dioxide]
- MED (minimum effective dose), anxiolytic effect in elevated maze test (male Sprague-Dawley rats): ≦0.01 mg/kg p.o.
